Laboratory results reported in patent US6835323B2, “Aqueous hydraulic medium” (Kemira Oyj, priority 1999, dated 2004).
≈ marks a conversion by molar mass, not a printed value.

Legend:
[1] = test system: Pseudomonas putila bacterium; conditions: cited from earlier work
[2] = test system: various microbes of paper-industry waste paste; conditions: inoculated with microbes, within two days
Description: The test was conducted so that each solution to be investigated was taken into two plastic sample flasks, 60 ml into each. One of the two flasks was inoculated with 2 g of paper-industry waste paste containing various microbes, such paste being known as a favorable growth medium for microbes. After mixing, the samples were allowed to stand at room temperature for 2 days.
Culture tests were performed on the samples in a laboratory specialized in microbiologic assays.
The assay of aerobic bacteria was performed using a PCA substrate and incubation for 2 days at 37° C. For the assay of anaerobic bacteria, Brewer's agar and incubation for 2 days in anaerobic vessels at 37° C. were used. In the assay of slime-forming bacteria, PCA-agar+saccharose 50 g/l and incubation for 2 days at 37° C. were used. The slimy colonies were counted. Yeasts and molds were assayed using a Saboraud maltose agar substrate and incubation for 3-4 days at 30° C.

Compound	EC 50 value [1] [mg/L]	Effect on inoculated microbes [2]
O=CO [formic acid]	46.7 (≈ 1010 µM)	
O=C[O-].[K+] [potassium formate]		does not form a growth medium for microbes
CCC(=O)O [propionic acid]	59.6 (≈ 805 µM)	
